The structures appear in SMILES notation.

In general, EC50 refers to the concentration needed to bring the measured effect to its halfway point.

The assay addresses T1, α1β2γ2S GABAA receptors (Homo sapiens, UniProt P14867+P47870).
T1 construct: expressed in transfected cells; host or cells: Xenopus laevis oocytes injected with cRNA (pCMV cDNA templates)
The experiment in a line: Two-microelectrode voltage clamp, IGABA modulation, α1β2γ2S. The assay is classed as cell-based. Conditions: for activation at 100 µM / modulation of IGABA (%): 100 μM compound, GABA EC3–7, Xenopus laevis oocytes, mean ± SEM; for nH: Hill coefficient of concentration–response curve; for EC50: IGABA enhancement, GABA EC3–7, Xenopus oocytes. The method, then: Preparation of stage V–VI oocytes from X. laevis and synthesis of capped runoff poly(A) cRNA transcripts from linearized cDNA templates (pCMV vector) was performed as previously described.[49] […] Follicle membranes from isolated oocytes were enzymatically digested with 2 mg/mL collagenase (type 1A, Sigma–Aldrich, Vienna, Austria).
Selected oocytes were injected with 10–50 nL of DEPC-treated water (diethyl pyrocarbonate, Sigma, Vienna, Austria) containing the different GABAA cRNAs at a concentration of approximately 300–3000 pg·nL^–1·subunit^–1.
To ensure expression of the γ2S subunit in the case of α1/2/3/5β2/3γ2S receptors, cRNAs were mixed in a ratio of 1:1:10. […] The amount of cRNAs was determined by means of a NanoDrop ND-1000 (Kisker-Biotech, Steinfurt, Germany).
Oocytes were stored at +18 °C in modified ND96 solution (90 mM NaCl, 1 mM CaCl2, 1 mM KCl, 1 mM MgCl2·6H2O, and 5 mM HEPES [4-(2-hydroxyethyl)-1-piperazineethanesulfonic acid], pH 7.4, all from Sigma–Aldrich, Vienna, Austria).
Chloride currents through GABAA receptors (IGABA) were measured at room temperature (+21 ± 1 °C) by means of a two-microelectrode voltage clamp technique making use of a Turbo TEC-05X amplifier (npi electronic, Tamm, Germany). IGABA were elicited at a holding potential of –70 mV. Data acquisition was carried out by means of an Axon Digidata 1322A interface using pCLAMP v.10 (Molecular Devices, Sunnyvale, CA). The modified ND96 solution was used as bath solution.
GABA and the studied derivatives were applied by means of the ScreeningTool (npi electronic, Tamm, Germany) fast perfusion system as described previously.[50] To elicit IGABA, the chamber was perfused with 120 μL of GABA- or compound-containing solution at a volume rate of 300 μL/s.[34] Care was taken to account for possible slow recovery from increasing levels of desensitization in the presence of high drug concentrations. The duration of washout periods was therefore extended from 1.5 min (<10 μM compounds) to 30 min (≥10 μM compounds). Oocytes with maximal current amplitudes >3 μA were discarded to exclude voltage clamp errors.
Stimulation of chloride currents by modulators of the GABAA receptor was measured at a GABA concentration eliciting between 3% and 7% of the maximal current amplitude (EC3–7). The GABA EC3–7 was determined for each oocyte individually. Enhancement of the chloride current was defined as (IGABA+compd/IGABA) – 1, where IGABA+compd is the current response in the presence of a given compound and IGABA is the control GABA current. IGABA-max reflects the maximal IGABA enhancement. Concentration–response curves were generated and the data were fitted by nonlinear regression analysis using Origin Software (OriginLab Corp.). Data were fitted to the equation 1/(1 + (EC50/[compound])^nH), where nH is the Hill coefficient. […] Statistical significance was calculated by paired Student t-test with a confidence interval of <0.05.

T1 sequence (P14867 28-456): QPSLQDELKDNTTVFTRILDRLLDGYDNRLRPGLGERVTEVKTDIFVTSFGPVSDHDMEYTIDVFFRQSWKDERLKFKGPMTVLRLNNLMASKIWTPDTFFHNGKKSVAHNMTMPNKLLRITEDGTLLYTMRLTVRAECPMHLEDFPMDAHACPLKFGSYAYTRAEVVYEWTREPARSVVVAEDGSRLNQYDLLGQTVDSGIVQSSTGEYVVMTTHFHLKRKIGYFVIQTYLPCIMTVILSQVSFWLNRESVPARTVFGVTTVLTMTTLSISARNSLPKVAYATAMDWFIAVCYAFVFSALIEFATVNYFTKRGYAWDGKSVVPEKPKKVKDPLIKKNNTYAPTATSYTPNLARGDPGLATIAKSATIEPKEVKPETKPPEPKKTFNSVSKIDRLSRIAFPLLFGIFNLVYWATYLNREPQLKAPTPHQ
T1 sequence (P47870 26-512): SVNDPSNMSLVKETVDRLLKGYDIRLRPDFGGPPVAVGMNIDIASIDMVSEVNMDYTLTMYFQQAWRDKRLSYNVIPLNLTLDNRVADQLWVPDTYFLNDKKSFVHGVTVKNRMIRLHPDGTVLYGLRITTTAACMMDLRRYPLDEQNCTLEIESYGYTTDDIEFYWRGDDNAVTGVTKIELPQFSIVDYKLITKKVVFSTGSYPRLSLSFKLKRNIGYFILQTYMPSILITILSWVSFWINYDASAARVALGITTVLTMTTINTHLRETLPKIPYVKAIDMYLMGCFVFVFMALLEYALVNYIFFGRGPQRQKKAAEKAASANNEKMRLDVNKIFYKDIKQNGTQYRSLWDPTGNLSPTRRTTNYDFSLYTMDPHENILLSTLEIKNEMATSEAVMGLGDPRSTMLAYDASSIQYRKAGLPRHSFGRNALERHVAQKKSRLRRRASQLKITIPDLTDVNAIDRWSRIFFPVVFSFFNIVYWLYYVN
T1 sequence (P18507 40-467 isoform P18507-1 partner limits assumed): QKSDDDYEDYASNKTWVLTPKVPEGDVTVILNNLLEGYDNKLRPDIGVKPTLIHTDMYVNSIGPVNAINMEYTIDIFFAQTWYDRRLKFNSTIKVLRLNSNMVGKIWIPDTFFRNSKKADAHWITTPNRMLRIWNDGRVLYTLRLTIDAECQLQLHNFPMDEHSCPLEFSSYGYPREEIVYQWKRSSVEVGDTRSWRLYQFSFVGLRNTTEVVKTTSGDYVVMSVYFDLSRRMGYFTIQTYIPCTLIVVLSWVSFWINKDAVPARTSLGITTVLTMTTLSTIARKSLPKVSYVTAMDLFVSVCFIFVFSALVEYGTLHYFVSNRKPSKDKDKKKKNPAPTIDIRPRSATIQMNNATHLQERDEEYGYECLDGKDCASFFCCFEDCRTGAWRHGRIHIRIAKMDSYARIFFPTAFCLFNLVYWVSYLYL

For `CC(C)N(C(=O)c1ccc(-c2ccc3c(c2)OCO3)s1)C(C)C` [Compound 61], the activation at 100 µM was determined as 11 ± 2%.

Regarding `O=C(/C=C/C=C/c1ccc2c(c1)OCO2)N1CCC(O)CC1` [Compound 37], the activation at 100 µM amounted to 26 ± 14%.

For the compound `COc1ccccc1N1CCN(C(=O)/C=C/C=C/c2ccc3c(c2)OCO3)CC1` [Compound 41], the activation at 100 µM was 5 ± 5%.

Regarding `CCCCN(CCCC)C(=O)c1cccc(-c2ccc3c(c2)OCO3)c1` [Compound 52], the activation at 100 µM was determined as 63 ± 12%.

For `CC(C)N(C(=O)/C=C/c1ccc2c(c1)OCO2)C(C)C` [Compound 18], the activation at 100 µM came out at 66 ± 30%.

Consider `CCCCNC(=O)/C=C/C=C/c1ccc2c(c1)OCO2` [Compound 11], for which the activation at 100 µM is 51 ± 11%.

Regarding `CCCN(CCC)C(=O)/C=C/c1ccc2cc3c(cc2c1)OCO3` [Compound 69], the activation at 100 µM came to 74 ± 1%.

On to `CN(C)C(=O)/C=C/C=C/c1ccc2c(c1)OCO2` [Compound 20], for which the activation at 100 µM turned out to be 61 ± 28%.

Consider `O=C(/C=C/C=C/c1ccc2c(c1)OCO2)N(C1CCCCC1)C1CCCCC1` [Compound 27], for which the activation at 100 µM is 13 ± 13%.

On to `COc1cc(NC(=O)/C=C/C=C/c2ccc3c(c2)OCO3)cc(OC)c1OC` [Compound 2], for which the activation at 100 µM was 10%.

On to `O=C(/C=C/c1ccc2c(c1)OCO2)N1CCCCC1` [Compound 17], for which the activation at 100 µM amounted to 79 ± 8%.

Regarding `O=C(/C=C/C=C/c1ccc2c(c1)OCO2)Nc1ccc([N+](=O)[O-])cc1O` [Compound 10], the activation at 100 µM was determined as 1 ± 7%.

As to `O=C(/C=C/C=C/c1ccc2c(c1)OCO2)N1CCOCC1` [Compound 29], the activation at 100 µM came to 0%.

`O=C(c1cccc2cc3c(cc12)OCO3)N1CCCCC1` [Compound 71]: the activation at 100 µM came to 32 ± 10%.

With `CN1CCN(C(=O)/C=C/C=C/c2ccc3c(c2)OCO3)CC1` [Compound 31], the activation at 100 µM is -20%.

Consider `CSc1ccc(NC(=O)/C=C/C=C/c2ccc3c(c2)OCO3)cc1` [Compound 1], for which the activation at 100 µM is 0%.

As to `CCCCCCCCCCNC(=O)/C=C/C=C/c1ccc2c(c1)OCO2` [Compound 15], the activation at 100 µM is -1%.

Regarding `O=C(c1ccccc1-c1ccc2c(c1)OCO2)N1CCCCC1` [Compound 54], the activation at 100 µM came out at 34 ± 8%.

In the case of `S=C(/C=C/C=C/c1ccc2c(c1)OCO2)N1CCCCC1` [Compound 44], the activation at 100 µM was 17 ± 17%.

For `CC(C)CN(CC(C)C)C(=O)c1cccc2cc3c(cc12)OCO3` [Compound 74], the activation at 100 µM was found to be 60 ± 17%.

Take `O=C(/C=C/C=C/c1ccc2c(c1)OCO2)NCCCc1ccccc1` [Compound 8]: the activation at 100 µM was -8%.

Take `CCCN(CCC)C(=O)c1cccc2c(-c3ccc4c(c3)OCO4)cccc12` [Compound 63]: the activation at 100 µM came to 12 ± 4%.

Take `O=C(/C=C/C=C/c1ccc2c(c1)OCO2)NCCC(c1ccccc1)c1ccccc1` [Compound 12]: the activation at 100 µM is -6%.

As to `CCCCN(CCCC)C(=O)c1ccc(-c2ccc3c(c2)OCO3)cc1` [Compound 48], the activation at 100 µM was found to be 49 ± 7%.

On to `O=C(/C=C/C=C/c1ccc2c(c1)OCO2)NC1CCCC1` [Compound 13], for which the activation at 100 µM was found to be 33 ± 17%.

For `O=C(c1ccc2cc3c(cc2c1)OCO3)N1CCCCC1` [Compound 75], the activation at 100 µM is 58 ± 29%.

As for `CCCN(CCC)C(=O)c1cccc2cc3c(cc12)OCO3` [Compound 72], the nH amounted to 1.9 ± 0.2 and the EC50 was 102 ± 11.2 µM.

For the compound `CC1CCN(C(=O)/C=C/C=C/c2ccc3c(c2)OCO3)CC1` [Compound 35], the nH was 1.9 ± 0.3 and the concentration for a half-maximal effect (EC50) was found to be 67.7 ± 11 µM.

Take `CCCN(CCC)C(=O)c1cccc(-c2ccc3c(c2)OCO3)c1` [Compound 51, 3-(Benzo[d][1,3]dioxol-5-yl)-N,N-dipropylbenzamide]: the activation at 100 µM was determined as 280% and the “modulation of IGABA (%)” value was 280 ± 52 %.

Take `O=C(c1cccc2c(-c3ccc4c(c3)OCO4)cccc12)N1CCCCC1` [Compound 62, [5-(Benzo[d][1,3]dioxol-5-yl)naphthalen-1-yl](piperidin-1-yl)methanone]: the activation at 100 µM was found to be 13 ± 2%.

In the case of `CCCN(CCC)C(=O)/C=C/c1cccc2cc3c(cc12)OCO3` [Compound 66], the activation at 100 µM stood at 67 ± 23%.

Turning to `CN(C)CCNC(=O)/C=C/C=C/c1ccc2c(c1)OCO2` [Compound 4], the activation at 100 µM is -15%.

Consider `O=C(/C=C/C=C/c1ccc2c(c1)OCO2)N(CC(F)(F)F)CC(F)(F)F` [Compound 43], for which the nH turned out to be 1.6 ± 0.2 and the EC50 was found to be 23.1 ± 3.3 µM.

As to `CC(C)N(C(=O)c1ccccc1-c1ccc2c(c1)OCO2)C(C)C` [Compound 57], the activation at 100 µM was determined as 15 ± 15%.

As to `CCCCN(CCCC)C(=O)c1cccc2cc3c(cc12)OCO3` [Compound 73], the nH was found to be 2.7 ± 0.2 and the EC50 was determined as 31.8 ± 5.3 µM.

As to `O=C(/C=C/C=C/c1ccc2c(c1)OCO2)Nc1c(F)cc(F)cc1F` [Compound 3], the activation at 100 µM worked out at 5 ± 5%.

Turning to `O=C(c1ccc(-c2ccc3c(c2)OCO3)s1)N1CCCCC1` [Compound 58], the activation at 100 µM is -5%.

With `O=C(/C=C/C=C/c1ccc2c(c1)OCO2)N1CCN(CCOCCO)CC1` [Compound 40], the activation at 100 µM came out at 12 ± 8%.

As to `O=C(/C=C/C=C/c1ccc2c(c1)OCO2)Nc1cccnc1` [Compound 6], the activation at 100 µM was -7%.

Turning to `CCCCN(CCCC)C(=O)c1ccccc1-c1ccc2c(c1)OCO2` [Compound 56], the nH came to 1.2 ± 0.0 and the EC50 was found to be 36.8 ± 2 µM.

On to `O=C(/C=C/C=C/c1ccc2c(c1)OCO2)N1CCCC(O)C1` (centres unmarked) [Compound 36], for which the activation at 100 µM stood at 33 ± 9%.

On to `COc1ccc(CCNC(=O)/C=C/C=C/c2ccc3c(c2)OCO3)cc1OC` [Compound 5], for which the activation at 100 µM was -2%.

For the compound `O=C(/C=C/C=C/c1ccc2c(c1)OCO2)Nc1ccccc1O` [Compound 9], the activation at 100 µM was 0%.

Turning to `CC(C)N(C(=O)/C=C/C=C/c1ccc2c(c1)OCO2)C(C)C` [Compound 22], the nH stood at 2.3 ± 0.2 and the half-maximal effective concentration (EC50) came to 86.7 ± 13.9 µM.

Take `O=C(/C=C/C=C/c1ccc2c(c1)OCO2)N1CCN(Cc2ccccc2)CC1` [Compound 42]: the activation at 100 µM stood at 48 ± 12%.

Consider `CCCCCCN(CCCCCC)C(=O)/C=C/C=C/c1ccc2c(c1)OCO2` [Compound 26], for which the activation at 100 µM came out at 0%.

In the case of `O=C(/C=C/c1ccc2cc3c(cc2c1)OCO3)N1CCCCC1` [Compound 68], the activation at 100 µM is -1%.

In the case of `O=C(/C=C/C=C/c1ccc2c(c1)OCO2)NC12CC3CC(CC(C3)C1)C2` [Compound 16], the activation at 100 µM is -6%.

`O=C(/C=C/C=C/c1ccc2c(c1)OCO2)Nc1ccc(Cl)cn1` [Compound 7]: the activation at 100 µM is 8 ± 7%.

As for `CCCCN(CCCC)C(=O)c1ccc(-c2ccc3c(c2)OCO3)s1` [Compound 60], the activation at 100 µM was found to be 51 ± 21%.

For the compound `C(/C=C/c1ccc2c(c1)OCO2)=C\CN1CCCCC1` [Compound 45], the activation at 100 µM is -16%.

Consider `CCCCN(CCCC)C(=O)/C=C/c1cccc2cc3c(cc12)OCO3` [Compound 67], for which the activation at 100 µM came out at 18 ± 9%.

As for `CCN1CCN(C(=O)/C=C/C=C/c2ccc3c(c2)OCO3)CC1` [Compound 32], the activation at 100 µM is -5%.

Regarding `O=C(/C=C/C=C/c1ccc2c(c1)OCO2)NCc1ccccc1` [Compound 14], the activation at 100 µM came out at 0%.

`CC(C)N(C(=O)c1cccc(-c2ccc3c(c2)OCO3)c1)C(C)C` [Compound 53]: the nH is 1.5 ± 0.2 and the EC50 stood at 55.3 ± 17.6 µM.

For the compound `CCCN(CCC)C(=O)c1ccccc1-c1ccc2c(c1)OCO2` [Compound 55], the activation at 100 µM came out at 79 ± 24%.

Take `O=C(c1ccc(-c2ccc3c(c2)OCO3)cc1)N1CCCCC1` [Compound 46]: the activation at 100 µM came to 42% and the “modulation of IGABA (%)” value turned out to be 42 ± 1 %.

With `CCCN(CCC)C(=O)c1ccc(-c2ccc3c(c2)OCO3)cc1` [Compound 47], the nH worked out at 1.2 ± 0.2 and the EC50 stood at 70.8 ± 21.1 µM.

(Values after publication PMC4106271 (Journal of Medicinal Chemistry, 2014).)
